± gives the expanded uncertainty stated by the source.

The data set in a line: activity coefficient (dimensionless); of the first substance listed, at infinite dilution; xn = mol fraction of the nth substance listed. As to conditions: 101.33 kPa, Liquid, Chromatography, x1 = 0.

In the case of `CCC(C)CC` [3-methylpentane] + N#C[N-]C#N.OCCC[n+]1ccccc1, the activity coefficient by setting is: (298.15 K) 321 ± 22; (308.15 K) 302 ± 21; (318.15 K) 286 ± 20; (328.15 K) 272 ± 19.
Turning to `C=C(C)c1ccccc1` [(1-methylethenyl)benzene] + N#C[N-]C#N.OCCC[n+]1ccccc1, the activity coefficient reads like this: (318.15 K) 11.3 ± 0.8; (328.15 K) 12 ± 0.8; (338.15 K) 12.7 ± 0.9; (348.15 K) 13.3 ± 0.9; (358.15 K) 14 ± 1; (368.15 K) 14.6 ± 1.
For `CC(C)=O` [acetone] + N#C[N-]C#N.OCCC[n+]1ccccc1, the activity coefficient (318.15 K) came out at 1.87 ± 0.13; the activity coefficient (328.15 K) came out at 1.97 ± 0.13; the activity coefficient (338.15 K) worked out at 2.05 ± 0.14; the activity coefficient (348.15 K) is 2.14 ± 0.15; the activity coefficient (358.15 K) is 2.23 ± 0.15; the activity coefficient (368.15 K) is 2.31 ± 0.16.
Regarding `CC#N` [acetonitrile] + N#C[N-]C#N.OCCC[n+]1ccccc1, the activity coefficient was determined as 1.24 ± 0.08 (318.15 K); 1.29 ± 0.08 (328.15 K); 1.34 ± 0.09 (338.15 K); 1.38 ± 0.09 (348.15 K); 1.43 ± 0.09 (358.15 K); 1.48 ± 0.1 (368.15 K).
With `c1ccccc1` [benzene] + N#C[N-]C#N.OCCC[n+]1ccccc1, the activity coefficient was 5.02 ± 0.34 (318.15 K); 5.18 ± 0.35 (328.15 K); 5.36 ± 0.37 (338.15 K); 5.53 ± 0.38 (348.15 K); 5.69 ± 0.39 (358.15 K); 5.85 ± 0.4 (368.15 K).
As for `CCCCO` [butan-1-ol] + N#C[N-]C#N.OCCC[n+]1ccccc1, the activity coefficient runs as follows: (318.15 K) 3.29 ± 0.22; (328.15 K) 3.23 ± 0.22; (338.15 K) 3.18 ± 0.22; (348.15 K) 3.13 ± 0.21; (358.15 K) 3.09 ± 0.21; (368.15 K) 3.05 ± 0.21.
As for `CCC(C)O` (stereo unspecified) [butan-2-ol] + N#C[N-]C#N.OCCC[n+]1ccccc1, the activity coefficient runs as follows: (318.15 K) 3.23 ± 0.22; (328.15 K) 3.18 ± 0.22; (338.15 K) 3.13 ± 0.21; (348.15 K) 3.09 ± 0.21; (358.15 K) 3.05 ± 0.21; (368.15 K) 3.02 ± 0.21.
With `CCCC=O` [butanal] + N#C[N-]C#N.OCCC[n+]1ccccc1, the activity coefficient turned out to be 4.09 ± 0.28 (318.15 K); 4.21 ± 0.29 (328.15 K); 4.3 ± 0.29 (338.15 K); 4.39 ± 0.3 (348.15 K); 4.49 ± 0.31 (358.15 K); 4.57 ± 0.31 (368.15 K).
For `C1CCCCCC1` [cycloheptane] + N#C[N-]C#N.OCCC[n+]1ccccc1, the activity coefficient was determined as 161 ± 11 (298.15 K); 149 ± 10 (308.15 K); 139 ± 10 (318.15 K); 130 ± 9 (328.15 K); 122 ± 8 (338.15 K); 115 ± 8 (348.15 K). Also, the activity coefficient (358.15 K) is 109 ± 7.
As for `C1CCCCC1` [cyclohexane] + N#C[N-]C#N.OCCC[n+]1ccccc1, the activity coefficient amounted to 118 ± 8 (298.15 K); 111 ± 8 (308.15 K); 105 ± 7 (318.15 K); 99.8 ± 6.8 (328.15 K); 95 ± 6.5 (338.15 K); 90.7 ± 6.2 (348.15 K). Besides, for the setting “358.15 K”, the activity coefficient was determined as 86.9 ± 6.
Take `C1=CCCCC1` [cyclohexene] + N#C[N-]C#N.OCCC[n+]1ccccc1: the activity coefficient is 38.7 ± 2.6 (298.15 K); 37.6 ± 2.6 (308.15 K); 36.6 ± 2.5 (318.15 K); 35.8 ± 2.4 (328.15 K); 34.8 ± 2.4 (338.15 K); 34 ± 2.3 (348.15 K). Also, the activity coefficient (358.15 K) was 33.4 ± 2.3.
For the compound `C1CCCCCCC1` [cyclooctane] + N#C[N-]C#N.OCCC[n+]1ccccc1, the activity coefficient (298.15 K) was 231 ± 16; the activity coefficient (308.15 K) came out at 215 ± 15; the activity coefficient (318.15 K) was found to be 201 ± 14; the activity coefficient (328.15 K) is 188 ± 13; the activity coefficient (338.15 K) worked out at 178 ± 12; the activity coefficient (348.15 K) worked out at 168 ± 12. Moreover, the activity coefficient (358.15 K) stood at 159 ± 11.
`C1CCCC1` [cyclopentane] + N#C[N-]C#N.OCCC[n+]1ccccc1: the activity coefficient by setting is: (298.15 K) 67 ± 4.6; (308.15 K) 63.5 ± 4.3; (318.15 K) 60.4 ± 4.1; (328.15 K) 57.4 ± 3.9; (338.15 K) 54.9 ± 3.8; (348.15 K) 52.7 ± 3.6. Besides, the activity coefficient (358.15 K) was determined as 50.5 ± 3.5.
Turning to `CCCCCCCCCC` [decane] + N#C[N-]C#N.OCCC[n+]1ccccc1, the activity coefficient runs as follows: (298.15 K) 2100 ± 140; (308.15 K) 1900 ± 130; (318.15 K) 1730 ± 120; (328.15 K) 1580 ± 110; (338.15 K) 1450 ± 100; (348.15 K) 1340 ± 92. The activity coefficient (358.15 K) was determined as 1240 ± 86.
For `CCOCC` [diethyl ether] + N#C[N-]C#N.OCCC[n+]1ccccc1, the activity coefficient came out at 21.5 ± 1.5 (318.15 K); 21.5 ± 1.5 (328.15 K); 21.5 ± 1.5 (338.15 K); 21.5 ± 1.5 (348.15 K); 21.4 ± 1.5 (358.15 K); 21.4 ± 1.5 (368.15 K).
For the compound `CC(C)OC(C)C` [diisopropyl ether] + N#C[N-]C#N.OCCC[n+]1ccccc1, the activity coefficient (318.15 K) is 105 ± 7; the activity coefficient (328.15 K) was found to be 102 ± 7; the activity coefficient (338.15 K) turned out to be 99.8 ± 6.8; the activity coefficient (348.15 K) stood at 97.5 ± 6.7; the activity coefficient (358.15 K) amounted to 95.4 ± 6.5; the activity coefficient (368.15 K) is 93.6 ± 6.4.
As to `CCCOCCC` [dipropyl ether] + N#C[N-]C#N.OCCC[n+]1ccccc1, the activity coefficient is 92.3 ± 6.3 (318.15 K); 89.2 ± 6.1 (328.15 K); 86.8 ± 5.9 (338.15 K); 84.2 ± 5.8 (348.15 K); 81.9 ± 5.6 (358.15 K); 79.7 ± 5.5 (368.15 K).

(Values after the NIST ThermoML archive (doi:10.1016/j.jct.2017.03.004).)
